Holding throughout (assay type): cell-based
The test system of one assay is RS4;11-BCL-2 F104L cells. Put plainly: Cell proliferation assay, engineered RS4;11 cells stably overexpressing BCL-2 F104L (MTS, 168 h). To be noted: Homo sapiens, read-out: RS4, 11 BCL2-F104L. How it is done: (§1) MTS testing kit was purchased from Promega (Madison, Wis., USA). The RPMI-1640, Fetal bovine serum and Penicillin-Streptomycin were purchased from BI (Biological Industries, Beit Haemek, Israel). Puromycin was purchased from Beyotime (shanghai, China). Dimethyl sulfoxide (DMSO) was purchased from Sigma (St. Louis, Mo., USA). RS4;1l-BCL-2 G101V and RS4;11-BCL-2 F104L cells were cultured in RPM11640 supplemented with 1 ug/mL puromycin, 100 U/mL Penicillin-Streptomycin and 10% FBS.
(§2) To investigate whether a compound is able to inhibit the activity of BCL-2 mutation in cells, a mechanism-based assay using engineered cell lines stably overexpressing BCL-2 mutation ([…] and […]) was developed. In this assay, the inhibition of BCL-2 mutation was reflected by the inhibition of cell proliferation of RS4;11-BCL-2 G101V and RS4;11-BCL-2 F104L cells. Cells were plated into 96-well plates at optimized cell density (RS4;11-BCL-2 G101V: 5000 cells/well; RS4;11-BCL-2 F104L: 5000 cells/well). Plates were incubated at 37° C., with 5% CO2 for 4 h. Compounds were serially diluted to the final-concentrations of 10000, 3333.3, 1111.1, 370.4, 123.5, 41.2, 13.7, 4.6 and 1.4 nM and added to the plates. Plates were incubated at 37° C., with 5% CO2 for 168 h. 20 μl MTS was added into each well and the plates were incubated at 37° C., with 5% CO2 exactly for 2 h. The absorbance was measured by a microplate reader at 490 nm. IC50 values were calculated using GraphPad Prism 5.0 software.

For a further assay, the system named is RS4;11-BCL-2 G101V cells. In words: Cell proliferation assay, engineered RS4;11 cells stably overexpressing BCL-2 G101V (MTS, 168 h). Conditions: read-out: RS4, 11 BCL2- G101V. How it is done: as §1, §2
In another assay the test system is Toledo cells. Put plainly: Cell proliferation assay, Toledo cells (MTS, 72 h). Conditions: Toledo cells, MTS, read-out: Toledo IC50. Summed up: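 Toledo cells (30000/well, RPMI-1640 with 10% FBS) were preincubated for 4 h. They were then exposed to nine compound concentrations from 10000 to 1.5 nM for 72 h at 37 °C, 5% CO2. MTS was added for 2 h and absorbance read at 490 nm to give IC50.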

Read-outs that look alike come from different tables or passages of the source.

As for `COC(C)COc1nc2[nH]cc(F)c2cc1Oc1cc(N2CCC3(CC2)CN([C@H]2CCC[C@H]2c2ccccc2C(C)C)C3)ccc1C(=O)NS(=O)(=O)c1cnc(NC[C@H]2CC[C@](C)(O)CC2)c([N+](=O)[O-])c1` (single isomer, unassigned) [Example A-155, 2-((3-fluoro-6-(2-methoxypropoxy)-1H-pyrrolo[2,3-b]pyridin-5-yl)oxy)-N-((6-((((1r,4r)-4-hydroxy-4-methyl-cyclohexyl)methyl)amino)-5-nitro-pyridin-3-yl)sulfonyl)-4-(2-((1S,2S or 1R,2R)-2-(2-isopropylphenyl)cyclo-pentyl)-2,7-diazaspiro[3.5]nonan-7-yl) benzamide], the IC50 is 1 nM in the assay with RS4;11-BCL-2 F104L cells and 13 nM in the assay with RS4;11-BCL-2 G101V cells (Homo sapiens, RS4-11, 168 h).

Turning to `COC(C)COc1nc2[nH]cc(F)c2cc1Oc1cc(N2CCC3(CC2)CC(N2CCC[C@H]2c2ccccc2C(C)C)C3)ccc1C(=O)NS(=O)(=O)c1cc2c(c([N+](=O)[O-])c1)N[C@@H]([C@H]1CC[C@](C)(O)CC1)CO2` (single isomer, unassigned) [Example D-243, 2-((3-fluoro-6-(2-methoxypropoxy)-1H-pyrrolo[2,3-b]pyridin-5-yl)oxy)-N-(((S)-3-((1r,4S)-4-hydroxy-4-methylcyclohexyl)-5-nitro-3,4-dihydro-2H-benzo[b][1,4]oxazin-7-yl)sulfonyl)-4-(2-((R or S)-2-(2-isopropylphenyl)pyrrolidin-1-yl)-7-azaspiro[3.5]nonan-7-yl)benzamide], the IC50 with RS4;11-BCL-2 F104L cells came out at 1 nM; in the assay with RS4;11-BCL-2 G101V cells (Homo sapiens, RS4-11, 168 h), 10 nM.

Take `COC(C)COc1nc2[nH]cc(F)c2cc1Oc1cc(N2CCC3(CC2)CN([C@H]2CCC[C@H]2c2ccccc2C(C)C)C3)ccc1C(=O)NS(=O)(=O)c1ccc(NC[C@H]2CC[C@](C)(O)CC2)c([N+](=O)[O-])c1` (single isomer, unassigned) [Example D-233, 2-((3-fluoro-6-(2-methoxypropoxy)-1H-pyrrolo[2,3-b]pyridin-5-yl)oxy)-N-((4-(((1r,4r)-4-hydroxy-4-methylcyclohexyl)methyl)amino)-3-nitrophenyl)sulfonyl)-4-(2-((1S,2S or 1R,2R)-2-(2-isopropylphenyl)cyclopentyl)-2,7-diazaspiro[3.5]nonan-7-yl)benzamide]: the IC50 with RS4;11-BCL-2 F104L cells worked out at 4 nM; with RS4;11-BCL-2 G101V cells (Homo sapiens, RS4-11, 168 h), 14 nM.

For `CC(C)c1ccccc1[C@@H]1CCCN1C1CC2(CCN(c3ccc(C(=O)NS(=O)(=O)c4cc5c(c([N+](=O)[O-])c4)N[C@@H]([C@H]4CC[C@](C)(O)CC4)CO5)c(Oc4cc5cc[nH]c5nc4OC4COC4)c3)CC2)C1` (single isomer, unassigned) [Example D-72, N-(((S)-3-((1r,4S)-4-hydroxy-4-methylcyclohexyl)-5-nitro-3,4-dihydro-2H-benzo[b][1,4]oxazin-7-yl)sulfonyl)-4-(2-((R or S)-2-(2-isopropylphenyl)pyrrolidin-1-yl)-7-azaspiro[3.5]nonan-7-yl)-2-((6-(oxetan-3-yloxy)-1H-pyrrolo[2,3-b]pyridin-5-yl)oxy) benzamide], the IC50 in the assay on RS4;11-BCL-2 G101V cells (Homo sapiens, RS4-11, 168 h) was determined as 17 nM; in the assay with Toledo cells (Homo sapiens), 1 nM.

Turning to `CCOc1nc2[nH]ccc2cc1Oc1cc(N2CCC3(CC2)CN([C@H]2CCC[C@H]2c2ccccc2C(C)C)C3)ccc1C(=O)NS(=O)(=O)c1cnc(NC[C@H]2CC[C@](C)(O)CC2)c([N+](=O)[O-])c1` (single isomer, unassigned) [Example A-161, 2-((6-ethoxy-1H-pyrrolo[2,3-b]pyridin-5-yl)oxy)-N-((6-(((1r,4r)-4-hydroxy-4-methylcyclohexyl)methyl)amino)-5-nitropyridin-3-yl)sulfonyl)-4-(2-((1S,2S or 1R,2R)-2-(2-isopropylphenyl)cyclo-pentyl)-2,7-diazaspiro[3.5]nonan-7-yl) benzamide], the IC50 with RS4;11-BCL-2 G101V cells (Homo sapiens, RS4-11, 168 h) was found to be 2 nM; in the assay with Toledo cells (Homo sapiens), 1 nM.

`CC(C)c1ccccc1[C@@H]1CCC[C@@H]1N1CC2(CCN(c3ccc(C(=O)NS(=O)(=O)c4cc5c(c([N+](=O)[O-])c4)N[C@@H]([C@H]4CC[C@](C)(O)CC4)CO5)c(Oc4cnc5[nH]cc(F)c5c4)c3)CC2)C1` (single isomer, unassigned) [Example D-28, 2-((3-fluoro-1H-pyrrolo[2,3-b]pyridin-5-yl)oxy)-N-(((S)-3-((1r,4S)-4-hydroxy-4-methylcyclohexyl)-5-nitro-3,4-dihydro-2H-benzo[b] [1,4]oxazin-7-yl)sulfonyl)-4-(2-((1S,2S or 1R,2R)-2-(2-isopropylphenyl)cyclopentyl)-2,7-diazaspiro[3.5]nonan-7-yl)benzamide]: the IC50 with RS4;11-BCL-2 G101V cells turned out to be 13 nM; in the assay with Toledo cells (Homo sapiens), 1 nM.

For `CC(C)c1ccccc1[C@@H]1CCC[C@@H]1N1CC2(CCN(c3ccc(C(=O)NS(=O)(=O)c4cc5c(c([N+](=O)[O-])c4)N[C@@H]([C@H]4CC[C@](C)(O)CC4)CO5)c(Oc4cnc5[nH]cc(F)c5c4)c3)CC2)C1` (single isomer, unassigned) [Example D-28a, 2-((3-fluoro-1H-pyrrolo[2,3-b]pyridin-5-yl)oxy)-N-(((S)-3-((1r,4S)-4-hydroxy-4-methylcyclohexyl)-5-nitro-3,4-dihydro-2H-benzo[b] [1,4]oxazin-7-yl)sulfonyl)-4-(2-((1S,2S or 1R,2R)-2-(2-isopropylphenyl)cyclopentyl)-2,7-diazaspiro[3.5]nonan-7-yl)benzamide], the IC50 in the assay with RS4;11-BCL-2 G101V cells and in the assay with Toledo cells was 1 nM each time.

As for `CC(C)c1ccccc1[C@@H]1CCC[C@@H]1N1CC2(CCN(c3ccc(C(=O)NS(=O)(=O)c4cc5c(c([N+](=O)[O-])c4)N[C@@H]([C@H]4CC[C@](C)(O)CC4)CO5)c(Oc4cc5cc[nH]c5nc4Cl)c3)CC2)C1` (single isomer, unassigned) [Example D-101, 2-((6-chloro-1H-pyrrolo2,3-b]pyridin-5-yl)oxy)-N-(((S)-3-((1r,4S)-4-hydroxy-4-methylcyclohexyl)-5-nitro-3,4-dihydro-2H-benzo[b] [1,4]oxazin-7-yl)sulfonyl)-4-(2-((1S,2S or 1R,2R)-2-(2-isopropylphenyl)cyclopentyl)-2,7-diazaspiro[3.5] nonan-7-yl)benzamide], the IC50 in the assay on RS4;11-BCL-2 G101V cells (Homo sapiens, RS4-11, 168 h) came out at 19 nM; in the assay with Toledo cells (Homo sapiens), 1 nM.

`COC(C)COc1nc2[nH]cc(F)c2cc1Oc1cc(N2CCC3(CC2)CN([C@H]2CCC[C@H]2c2ccccc2C(C)C)C3)ccc1C(=O)NS(=O)(=O)c1cc2c(c([N+](=O)[O-])c1)N[C@@H]([C@H]1CC[C@](C)(O)CC1)CO2` (single isomer, unassigned) [Example D-241, 2-((3-fluoro-6-(2-methoxypropoxy)-1H-pyrrolo[2,3-b]pyridin-5-yl)oxy)-N-(((S)-3-((1r,4S)-4-hydroxy-4-methylcyclohexyl)-5-nitro-3,4-dihydro-2H-benzo[b][1,4]oxazin-7-yl)sulfonyl)-4-(2-((1S,2S or 1R,2R)-2-(2-isopropylphenyl)cyclopentyl)-2,7-diazaspiro[3.5]nonan-7-yl)benzamide]: the IC50 amounted to 1 nM in the assay on RS4;11-BCL-2 F104L cells and 4 nM with RS4;11-BCL-2 G101V cells (Homo sapiens, RS4-11, 168 h).

Values taken from patent publication US20230159527A1, “COMPOUNDS AS BCL-2 INHIBITORS” (Fochon Pharmaceuticals, Ltd., priority 2020, published 2023).
